Where two headings read alike, the source gives them in different places.
Columns and labels:
Type in all cases: in vivo
[1] = tested on: barnyardgrass (Echinochloa crus-galli); experiment: Test A pre-/postemergence plant response; details: Echinochloa crus-galli, 240 h; for pest or weed control at 125 g/ha: 125 g ai/ha; for pest or weed control at 500 g/ha: 500 g ai/ha
Method in brief: (§1)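 Greenhouse trial, ~10 days. Soil (loam/sand) sprayed preemergence after seeding; emerged plants (1–2 leaf, 2–10 cm) sprayed postemergence in parallel. Response = visual injury vs untreated control, 0–100.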

corn (Zea mays) = experiment: Test A pre-/postemergence plant response; details: Zea mays, 240 h; for Corn plant response rating (crop injury, 0 = no effect, 100 = complete kill) at 125 g/ha: 125 g ai/ha
Method in brief: as §1

[2] = tested on: giant foxtail (Setaria faberii); experiment: Test A pre-/postemergence plant response; details: Setaria faberi, 240 h; for pest or weed control at 125 g/ha: 125 g ai/ha; for pest or weed control at 500 g/ha: 500 g ai/ha
Method in brief: as §1

[3] = tested on: large crabgrass (Digitaria sanguinalis); experiment: Test A pre-/postemergence plant response; details: Digitaria sanguinalis, 240 h; for pest or weed control at 125 g/ha: 125 g ai/ha; for pest or weed control at 500 g/ha: 500 g ai/ha
Method in brief: as §1

[4] = tested on: morningglory (Ipomoea spp.); experiment: Test A pre-/postemergence plant response; details: Ipomoea, 240 h; for pest or weed control at 125 g/ha: 125 g ai/ha; for pest or weed control at 500 g/ha: 500 g ai/ha
Method in brief: as §1

[5] = tested on: pigweed (Amaranthus retroflexus); experiment: Test A pre-/postemergence plant response; details: Amaranthus retroflexus, 240 h; for pest or weed control at 125 g/ha: 125 g ai/ha; for pest or weed control at 500 g/ha: 500 g ai/ha
Method in brief: as §1

[6] = tested on: velvetleaf (Abutilon theophrasti); experiment: Test A pre-/postemergence plant response; details: Abutilon theophrasti, 240 h; for pest or weed control at 125 g/ha: 125 g ai/ha; for pest or weed control at 500 g/ha: 500 g ai/ha
Method in brief: as §1

[7] = tested on: wheat (Triticum aestivum); experiment: Test A pre-/postemergence plant response; details: Triticum aestivum, 240 h; for plant injury at 125 g/ha: 125 g ai/ha; for plant injury at 500 g/ha: 500 g ai/ha
Method in brief: as §1

[8] = tested on: canarygrass (Phalaris minor); experiment: Test B postemergence plant response; details: Phalaris minor, post-emergence, 360 h, Postemergence, read-out: Plant response rating, Canarygrass
Method in brief: (§2)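 Plants grown in peat/vermiculite medium were sprayed postemergence at 2–18 cm height (1- to 4-leaf stage). After 13–15 days in the greenhouse, response was rated visually against untreated controls on a 0–100 scale (0 no effect, 100 complete control).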

[9] = tested on: chickweed (Stellaria media); experiment: Test B postemergence plant response; details: Stellaria media, post-emergence, 360 h, Postemergence, read-out: Plant response rating, Chickweed
Method in brief: as §2

[10] = tested on: windgrass (Apera spica-venti); experiment: Test B postemergence plant response; details: Apera spica-venti, post-emergence, 360 h, Postemergence, read-out: Plant response rating, Windgrass
Method in brief: as §2

[11] = tested on: winter barley (Hordeum vulgare); experiment: Test B postemergence plant response; details: Hordeum vulgare, post-emergence, Postemergence, read-out: Plant response rating, Barley
Method in brief: as §2

[12] = pre-emergence, Preemergence, 0 to 100 scale, 0 = no effect, 100 = complete control, read-out: Plant response rating, Barnyardgrass
[13] = pre-emergence, Preemergence, 0 to 100 scale, 0 = no effect, 100 = complete control, read-out: Plant response rating, Foxtail, Giant
[14] = pre-emergence, Preemergence, 0 to 100 scale, 0 = no effect, 100 = complete control, read-out: Plant response rating, Crabgrass, Large
[15] = pre-emergence, Preemergence, 0 to 100 scale, 0 = no effect, 100 = complete control, read-out: Plant response rating, Morningglory
[16] = pre-emergence, Preemergence, 0 to 100 scale, 0 = no effect, 100 = complete control, read-out: Plant response rating, Pigweed
[17] = pre-emergence, Preemergence, 0 to 100 scale, 0 = no effect, 100 = complete control, read-out: Plant response rating, Velvetleaf
[18] = pre-emergence, Preemergence, 0 to 100 scale, 0 = no effect, 100 = complete control, read-out: Plant response rating, Wheat
[19] = 31 g ai/ha, 0 to 100 scale (0 no effect, 100 complete control)
[20] = 62 g ai/ha, scale 0 to 100 (0 no effect, 100 complete control)
[21] = 125 g ai/ha, scale 0 (no effect) to 100 (complete control), 13 to 15 days
[22] = 250 g ai/ha, scale 0 to 100 (0 no effect, 100 complete control), 13 to 15 days

COCCn1c(-c2cc(F)cc(F)c2)ncc(C(=O)C2=C(O)C3CCC(C3)C2=O)c1=O (stereo not drawn) [Compound 243, 2-(3,5-difluorophenyl)-5-[(2-hydroxy-4-oxobicyclo[3.2.1]oct-2-en-3-yl)carbonyl]-3-(2-methoxyethyl)-4(3H)-pyrimidinone]
pest or weed control at 125 g/ha ([1]; post-emergence, Postemergence, 0 to 100 scale where 0 is no effect and 100 is complete control, read-out: Plant response rating, Barnyardgrass): 100%
pest or weed control at 500 g/ha ([1]; post-emergence, Postemergence, visual injury, 0 to 100 scale (0 no effect, 100 complete control), approx. ten days, read-out: Barnyardgrass plant response rating): 100%
pest or weed control at 125 g/ha [1, 12]: 70%
pest or weed control at 500 g/ha [1, 12]: 100%
Corn plant response rating (crop injury, 0 = no effect, 100 = complete kill) at 125 g/ha (corn (Zea mays); post-emergence, Postemergence, 0 to 100 scale where 0 is no effect and 100 is complete control): 70%
plant injury at 500 g/ha (corn (Zea mays); post-emergence, Postemergence, 500 g ai/ha, visual injury, 0 to 100 scale (0 no effect, 100 complete control), approx. ten days, read-out: Corn plant response rating): 90%
Corn plant response rating (crop injury, 0 = no effect, 100 = complete kill) at 125 g/ha (corn (Zea mays); pre-emergence, Preemergence, 0 to 100 scale, 0 = no effect, 100 = complete control): 30%
Corn plant response rating (crop injury, 0 = no effect, 100 = complete kill) at 500 g/ha (corn (Zea mays); pre-emergence, Preemergence, 500 g ai/ha, 0 to 100 scale, 0 = no effect, 100 = complete control): 60%
pest or weed control at 125 g/ha ([2]; post-emergence, Postemergence, 0 to 100 scale where 0 is no effect and 100 is complete control, read-out: Plant response rating, Foxtail, Giant): 100%
pest or weed control at 500 g/ha ([2]; post-emergence, Postemergence, visual injury, 0 to 100 scale (0 no effect, 100 complete control), approx. ten days, read-out: Foxtail, Giant plant response rating): 100%
pest or weed control at 125 g/ha [2, 13]: 90%
pest or weed control at 500 g/ha [2, 13]: 100%
pest or weed control at 125 g/ha ([3]; post-emergence, Postemergence, 0 to 100 scale where 0 is no effect and 100 is complete control, read-out: Plant response rating, Crabgrass, Large): 90%
pest or weed control at 500 g/ha ([3]; post-emergence, Postemergence, visual injury, 0 to 100 scale (0 no effect, 100 complete control), approx. ten days, read-out: Crabgrass, Large plant response rating): 90%
pest or weed control at 125 g/ha [3, 14]: 100%
pest or weed control at 500 g/ha [3, 14]: 100%
pest or weed control at 125 g/ha ([4]; post-emergence, Postemergence, 0 to 100 scale where 0 is no effect and 100 is complete control, read-out: Plant response rating, Morningglory): 100%
pest or weed control at 500 g/ha ([4]; post-emergence, Postemergence, visual injury, 0 to 100 scale (0 no effect, 100 complete control), approx. ten days, read-out: Morningglory plant response rating): 100%
pest or weed control at 125 g/ha [4, 15]: 70%
pest or weed control at 500 g/ha [4, 15]: 90%
pest or weed control at 125 g/ha ([5]; post-emergence, Postemergence, 0 to 100 scale where 0 is no effect and 100 is complete control, read-out: Plant response rating, Pigweed): 100%
pest or weed control at 500 g/ha ([5]; post-emergence, Postemergence, visual injury, 0 to 100 scale (0 no effect, 100 complete control), approx. ten days, read-out: Pigweed plant response rating): 100%
pest or weed control at 125 g/ha [5, 16]: 100%
pest or weed control at 500 g/ha [5, 16]: 100%
pest or weed control at 125 g/ha ([6]; post-emergence, Postemergence, 0 to 100 scale where 0 is no effect and 100 is complete control, read-out: Plant response rating, Velvetleaf): 100%
pest or weed control at 500 g/ha ([6]; post-emergence, Postemergence, visual injury, 0 to 100 scale (0 no effect, 100 complete control), approx. ten days, read-out: Velvetleaf plant response rating): 100%
pest or weed control at 125 g/ha [6, 17]: 90%
pest or weed control at 500 g/ha [6, 17]: 100%
plant injury at 125 g/ha ([7]; post-emergence, Postemergence, 0 to 100 scale where 0 is no effect and 100 is complete control, read-out: Plant response rating, Wheat): 70%
plant injury at 500 g/ha ([7]; post-emergence, Postemergence, visual injury, 0 to 100 scale (0 no effect, 100 complete control), approx. ten days, read-out: Wheat plant response rating): 90%
plant injury at 125 g/ha [7, 18]: 30%
plant injury at 500 g/ha [7, 18]: 70%
pest or weed control at 31 g/ha [8, 19]: 90%
pest or weed control at 62 g/ha [8, 20]: 98%
pest or weed control at 125 g/ha [8, 21]: 100%
pest or weed control at 250 g/ha [8, 22]: 100%
pest or weed control at 31 g/ha [9, 19]: 80%
pest or weed control at 62 g/ha [9, 20]: 100%
pest or weed control at 125 g/ha [9, 21]: 100%
pest or weed control at 250 g/ha [9, 22]: 100%
pest or weed control at 31 g/ha [10, 19]: 80%
pest or weed control at 62 g/ha [10, 20]: 90%
pest or weed control at 125 g/ha [10, 21]: 98%
pest or weed control at 250 g/ha [10, 22]: 100%
plant injury at 31 g/ha [11, 19]: 60%
plant injury at 62 g/ha [11, 20]: 90%
plant injury at 125 g/ha [11, 21]: 95%
plant injury at 250 g/ha [11, 22]: 95%
